Key:
Test in all cases: absorption spectrum of purified protein
Assay type in all cases: binding
Settings in all cases: covalent (protonated Schiff base); 1 M NaCl, 0.05% DDM, pH 7.0
GR = molecular target: T1, GR (Gloeobacter violaceus, UniProt Q7NP59)
T1 construct: gene gll0198
T1 sequence (Q7NP59 1-298): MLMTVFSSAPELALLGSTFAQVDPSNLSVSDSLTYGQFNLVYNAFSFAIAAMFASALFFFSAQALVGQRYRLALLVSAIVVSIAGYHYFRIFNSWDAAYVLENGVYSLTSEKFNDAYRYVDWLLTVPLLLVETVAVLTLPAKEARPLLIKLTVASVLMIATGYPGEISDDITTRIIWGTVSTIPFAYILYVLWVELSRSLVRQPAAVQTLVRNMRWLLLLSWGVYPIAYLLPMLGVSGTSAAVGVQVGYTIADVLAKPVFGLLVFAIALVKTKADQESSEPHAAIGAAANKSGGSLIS

AR3 (archaerhodopsin-3) = molecular target: T2, AR3 (archaerhodopsin-3) (Halorubrum sodomense, UniProt P96787, M128A/G132A/S151G/A225T)
T2 construct: gene aop3

HwBR = molecular target: T3, HwBR (Haloquadratum walsbyi, UniProt Q18DH8)
T3 construct: gene bop1
T3 sequence (Q18DH8 7-254): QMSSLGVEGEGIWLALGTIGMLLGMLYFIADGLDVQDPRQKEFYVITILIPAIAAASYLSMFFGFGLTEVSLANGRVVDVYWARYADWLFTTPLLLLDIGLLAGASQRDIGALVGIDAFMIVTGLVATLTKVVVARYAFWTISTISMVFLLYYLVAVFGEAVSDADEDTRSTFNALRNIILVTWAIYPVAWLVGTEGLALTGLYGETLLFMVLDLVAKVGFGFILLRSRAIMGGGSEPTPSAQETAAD

T2 sequence (P96787 7-258 M128A/G132A/S151G/A225T): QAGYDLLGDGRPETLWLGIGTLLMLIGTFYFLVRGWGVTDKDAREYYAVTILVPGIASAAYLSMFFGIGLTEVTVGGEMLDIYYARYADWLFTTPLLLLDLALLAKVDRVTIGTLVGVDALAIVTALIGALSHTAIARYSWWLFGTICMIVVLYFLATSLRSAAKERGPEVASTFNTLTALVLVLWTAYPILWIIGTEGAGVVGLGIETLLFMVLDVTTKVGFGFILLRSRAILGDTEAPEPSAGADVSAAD

With `CC1=C(/C=C/C(C)=C/C=C/C(C)=C/C=O)C(C)(C)CCC1` [all-trans retinal] the “absorption spectrum of purified protein” value (GR) was “Absorption spectra of wild-type and colour variants of HwBR (a) and GR (b)”, the “absorption spectrum of purified protein” value (AR3 (archaerhodopsin-3)) was “The M128A/G132A/S151G/A225T and M128A/S151A/A225T mutants slightly reduced the shifts” and the “absorption spectrum of purified protein” value (HwBR) was “Absorption spectra of wild-type and colour variants of HwBR (a) and GR (b)”.

From publication PMC4479019, “Atomistic design of microbial opsin-based blue-shifted optogenetics tools” (Nature Communications, 2015)
